From ChEMBL document CHEMBL1141065, “Inhibition of mandelate racemase by the substrate-intermediate-product analogue 1,1-diphenyl-1-hydroxymethylphosphonate” (Bioorg Med Chem Lett, 2005)
pKi: −log10 of the molar value.

Tests used:
[1] = biological target: T1, Mandelate racemase (Pseudomonas putida, UniProt P11444); assay: Inhibitory activity against Mandelate racemase at pH 6.3 at 25 degree C
T1 sequence (P11444 whole entry): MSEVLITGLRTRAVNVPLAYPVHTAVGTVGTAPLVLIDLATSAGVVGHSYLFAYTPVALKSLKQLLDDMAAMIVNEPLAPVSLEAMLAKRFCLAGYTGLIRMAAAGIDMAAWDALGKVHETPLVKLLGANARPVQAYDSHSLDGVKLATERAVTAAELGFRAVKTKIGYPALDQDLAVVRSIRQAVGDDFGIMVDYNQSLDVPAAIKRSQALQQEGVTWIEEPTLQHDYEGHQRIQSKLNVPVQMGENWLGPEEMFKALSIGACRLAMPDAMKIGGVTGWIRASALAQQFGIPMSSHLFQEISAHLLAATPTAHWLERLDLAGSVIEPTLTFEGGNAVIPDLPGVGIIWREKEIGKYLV

[2] = biological target: T1, Mandelate racemase; assay: Inhibitory activity against Mandelate racemase at pH 7.5 at 25 degree C
[3] = biological target: T1, Mandelate racemase; assay: Inhibitory activity against Mandelate racemase at pH 8.7 at 25 degree C

`O=P(O)(O)C(O)(c1ccccc1)c1ccccc1` showed a pKi [1] of 2.23, a pKi [2] of 2.85 and a pKi [3] of 2.16.
